Results reported in US4273775A, “Hydantoin derivatives, anti-diabetic compositions thereof, and method of use thereof” (Pfizer Inc., priority 1980, dated 1981).

Tests used:
[1] = system: sorbitol accumulation in the sciatic nerve of streptozotocinized rats; assay: inhibition of sorbitol accumulation in the sciatic nerve of streptozotocinized (diabetic) rats; assay type: in vivo; details: measured 27 hours after induction of diabetes, vs untreated
Protocol: The activity of the compounds of the present invention, as agents for the control of chronic diabetic complications, is determined by their ability to successfully pass one or more of the following standard biological and/or pharmacological tests, viz., (1) measuring their ability to inhibit the enzyme activity of isolated aldose reductase; (2) measuring their ability to reduce or inhibit sorbitol accumulation in the sciatic nerve of acutely streptozotocinized (i.e., diabetic) rats; (3) measuring their ability to reverse already-elevated sorbitol levels in the sciatic nerve and lens of chronic streptozotocin-induced diabetic rats; (4) measuring their ability to prevent or inhibit galactitol formation in the lens of acutely galactosemic rats, and (5) measuring their ability to delay cataract formation and reduce the severity of lens opacities in chronic galactosemic rats. The following tetrahydroquinoline-derived spiro-hydantoin compounds of Examples 1 and 3-4, respectively, were tested for their ability to reduce or inhibit sorbitol accumulation in the sciatic nerve of streptozotocinized (i.e., diabetic) rats by the procedure essentially described in U.S. Pat. No. 3,821,383. In the present study, the amount of sorbitol accumulation in the sciatic nerves was measured 27 hours after induction of diabetes. The compounds were administered orally at the dose levels indicated at 4, 8 and 24 hours following the administration of streptozotocin. The results obtained in this manner are presented below in terms of percent inhibition (%) afforded by the test compound as compared to the case where no compound was administered (i.e., the untreated animal where sorbitol levels normally rise from approximately […]. tissue to as high as 400 mM/g. tissue in the 27-hour test period): […]

[2] = system: sorbitol levels in diabetic rats; assay: control (inhibition) of the formation of sorbitol levels in diabetic rats, oral; assay type: in vivo; details: 5.0 mg./kg. to 25 mg./kg.
From the text: As previously indicated, the tetrahydroquinoline-derived spiro-hydantoin compounds of this invention are all readily adapted to therapeutic use as aldose reductase inhibitors for the control of chronic diabetic complications, in view of their ability to reduce lens sorbitol levels in diabetic subjects to a statistically significant degree. […] The other compounds of this invention also cause similar results. Furthermore, all the herein described compounds of this invention can be administered by either the oral or parenteral routes of administration, for the present purposes at hand, without causing any significant untoward pharmacological side reactions to occur in the subject to whom they are so administered. In general, these compounds are ordinarily administered in dosages ranging from about 0.25 mg. to about 25 mg. per kg. of body weight per day, although variations will necessarily occur depending upon the weight and condition of the subject being treated and the particular route of administration chosen.

[3] = 5.0 mg./kg. orally at 4, 8 and 24 hours after streptozotocin

Row | Structure (SMILES) | Percent Inhibition (%) of sorbitol accumulation in sciatic nerve [1, 3] [%] | Percent Inhibition (%) of sorbitol accumulation in sciatic nerve ([1]; 10 mg./kg. orally at 4, 8 and 24 hours after streptozotocin) [%] | control (i.e., inhibit) the formation of sorbitol levels in diabetic rats [2]
1 | CN1CCC2(NC(=O)NC2=O)c2ccccc21.Cl (stereo not shown) [Product of Example 1, 1'-methyl-1',2',3',4'-tetrahydro-spiro-[imidazolidine-4,4'-quinoline]-2,5-dione hydrochloride] | 19 |  | 
2 | O=C1NC(=O)C2(CCNc3cc(Cl)ccc32)N1 (stereo not shown) [Product of Example 3, 7'-chloro-1',2',3',4'-tetrahydro-spiro-[imidazolidine-4,4'-quinoline]-2,5-dione] | 23 |  | 
3 | O=C1NC(=O)C2(CCNc3ccc(Cl)cc32)N1 (stereo not shown) [Product of Example 4, 6'-chloro-1',2',3',4'-tetrahydro-spiro-[imidazolidine-4,4'-quinoline]-2,5-dione] |  | 80 | consistently control (i.e., inhibit) the formation of sorbitol levels in diabetic rats to a significantly high degree
